We go through one compound from patent US11919854B2, “P2RX7 modulators in therapy” (Centre national de la recherche scientifique, priority 2018, dated 2024).

The target in assay [1] is T1, human P2RX7 (Homo sapiens, UniProt Q99572).
T1 construct: expressed in transfected cells; host or cells: HEK cells
T1 sequence (Q99572 1-595): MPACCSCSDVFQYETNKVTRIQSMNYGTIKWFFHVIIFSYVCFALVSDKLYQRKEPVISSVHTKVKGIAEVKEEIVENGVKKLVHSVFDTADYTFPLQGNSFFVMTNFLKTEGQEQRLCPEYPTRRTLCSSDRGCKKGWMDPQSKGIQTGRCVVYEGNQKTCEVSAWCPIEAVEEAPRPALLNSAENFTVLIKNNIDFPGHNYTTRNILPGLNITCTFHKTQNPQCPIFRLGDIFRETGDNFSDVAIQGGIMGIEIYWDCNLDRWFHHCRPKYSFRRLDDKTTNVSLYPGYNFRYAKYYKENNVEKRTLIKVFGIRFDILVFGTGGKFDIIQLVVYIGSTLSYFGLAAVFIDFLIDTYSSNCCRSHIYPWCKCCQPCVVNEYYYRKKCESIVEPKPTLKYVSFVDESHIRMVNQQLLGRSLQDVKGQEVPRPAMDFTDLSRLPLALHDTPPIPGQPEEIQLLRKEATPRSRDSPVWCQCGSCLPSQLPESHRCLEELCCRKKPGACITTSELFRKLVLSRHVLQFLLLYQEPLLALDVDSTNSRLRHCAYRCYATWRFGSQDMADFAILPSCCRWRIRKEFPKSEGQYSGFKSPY
Nature of the assay: Calcium influx and large cation permeation by FACS, 15 min, HEK cells with human P2RX7, increasing doses of HEI3090. It is filed as cell-based. To be noted: increasing doses of HEI3090, 7.8 μM BzATP. Here is the method:
Calcium influx (Fluo-AM positive cells) and large cation permeation (Topro3 positive cells) were assayed by FACS 15 min after stimulation of HEK cells transfected with the human P2RX7 that were treated with increasing doses of HEI3090 in the presence of 7.8 μM BzATP.
(§1) Complementary analyses were also performed to document the biological activity of HEI3090, the more soluble version of HEI2328, on both HEK cells expressing mouse P2RX7 (mP2RX7) (FIG. 14) or human P2RX7 (hP2RX7) (FIG. 15). BzATP or ATP stimulate channel activity, an event that occurred in the first minutes of P2RX7 stimulation. […] The same positive effect was observed on cells expressing human P2RX7 (FIG. 15).
(In general: A flow cytometer gives signals particle by particle.)

Assay [2] has as its target T1, human P2RX7. Nature of the assay: Large pore opening with increasing BzATP in human P2RX7 expressing cells. In kind it is cell-based. To be noted: increasing concentration of BzATP with or without HEI3090. The procedure: A. Splenocytes from control or p2rx7^exon2 KO mice were isolated and treated with HEI3090 (50 μM) in presence of absence of BzATP (500 μM). B. Large pore opening induced by increasing concentration of BzATP in presence or absence of HEI3090 in human P2RX7 expressing cells.
Indeed, with the same BzATP concentration, more cells are positive for Topro3 staining.

Assay [3] has as its system B16F10 cells. Nature of the assay: B16F10 cell death (XTT absorbance). It is filed as cell-based, mouse. The note with it: 3 h treatment with BzATP and HEI3090. Here is the method:
A. Large pore opening. Dot plot of representative experiment. Numbers highlighted the percentage of positive cells. […] B. representative curve of XTT absorbance over the time. […] Mean±SEM are shown. ***, p<0.001; ****, p<0.0001 Mann-Whitney test.
Of interest, potentiation of large pore opening correlated with increased-B16F10 cell death, as illustrated in FIG. 9. Cells treated during 1 h with BzATP and HEI3090 incorporated 3-fold more Topro3 than cells treated with BzATP only (FIG. 9A). Longer incubation increased cell death, since it was observed up to 80% of dead cells after 3 h treatment (FIG. 9B).

The subject of assay [4] is LLC. Nature of the assay: LLC tumor growth, HEI3090 combined with anti-PD-1 checkpoint inhibitor. It is filed as in vivo, C57BL6J mice. The procedure:
b-g Effect of HEI3090 and anti PD-1 checkpoint inhibitor on LLC tumor growth. 5.105 LLC were injected s.c. into the flank of C57BL6J mice. Mice were treated i.p. with vehicle (PBS, 10% DMSO) or with HEI3090 (1.5 mg/kg in PBS, 10% DMSO) from day 1 to day 18. Each mouse received 200 μg of anti PD-1 i.p. at day 4.7.10.13 and 16. Tumor sizes were measured from day 1 to day 90. Mice were sacrificed when tumor reached 100 mm2. For contralateral re-challenge, cured mice or naive age matched C57BL6J mice were injected s.c. in the opposite flank with 2.105 LLC. At day 150, re-challenged treated mice or C57BL/6J naive mice were sacrificed to sort CD8+ T cells. 2.105 CD8+ T cells were adoptively transferred in other C57BL6J naive mice. Then mice were injected s.c with 2.105 LLC (b). Spaghetti plots of LLC tumor growth of vehicle and anti-PD-1 treated mice or HEI3090 and anti-PD-1 treated mice (c). Each curve represents one mouse. Survival curves of mice treated with vehicle or HEI3090 and isotype control or vehicle or HEI3090 and anti-PD-1 (d). Tumor growth and survival curves after re-challenge of cured mice treated with HEI3090 and anti-PD-1 or age matched C57BL/6J mice (e,f). Tumor growth after i.v. injection of CD8+ T cells from naïve mice or re-challenged treated mice (g).

For assay [5], the target named is T2, mouse P2RX7 (Mus musculus, UniProt Q9Z1M0).
T2 construct: expressed in transfected cells; host or cells: HEK cells
T2 sequence (Q9Z1M0 1-595): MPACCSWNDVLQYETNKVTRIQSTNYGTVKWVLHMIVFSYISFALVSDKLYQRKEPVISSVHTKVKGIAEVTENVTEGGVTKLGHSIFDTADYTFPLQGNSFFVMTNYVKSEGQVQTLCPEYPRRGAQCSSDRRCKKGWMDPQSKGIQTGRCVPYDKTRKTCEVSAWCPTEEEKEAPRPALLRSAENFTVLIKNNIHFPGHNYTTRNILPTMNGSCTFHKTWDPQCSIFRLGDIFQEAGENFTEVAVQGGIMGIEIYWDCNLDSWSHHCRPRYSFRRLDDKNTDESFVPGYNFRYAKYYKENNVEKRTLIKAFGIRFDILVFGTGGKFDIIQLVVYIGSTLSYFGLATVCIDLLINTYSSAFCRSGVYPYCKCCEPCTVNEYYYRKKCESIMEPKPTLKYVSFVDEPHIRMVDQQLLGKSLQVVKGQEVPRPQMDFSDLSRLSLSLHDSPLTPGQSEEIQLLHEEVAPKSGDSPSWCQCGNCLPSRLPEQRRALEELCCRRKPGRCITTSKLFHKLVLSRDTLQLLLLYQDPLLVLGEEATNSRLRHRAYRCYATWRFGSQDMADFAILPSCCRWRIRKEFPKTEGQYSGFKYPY
Nature of the assay: Calcium influx and large cation permeation by FACS, 15 min, HEK cells with mouse P2RX7, increasing doses of BzATP. In kind it is cell-based. The note with it: 15 min stimulation. The procedure:
Calcium influx (Fluo-AM positive cells) and large cation permeation (Topro3 positive cells) were assayed by FACS 15 min after stimulation of HEK cells transfected with the mouse P2RX7 treated with increasing doses of BzATP.
as §1

Take `O=C(NCc1ccc(Cl)cc1Cl)[C@@H]1CCC(=O)N1C(=O)Nc1ccc(Cl)nc1` [HEI3090, (S)—N^1-(6-Chloropyridin-3-yl)-N^2-(2,4-dichlorobenzyl)-5-oxopyrrolidine-1,2-dicarboxamide]: in assay [1], the “increase of Ca influx (Fluo-AM positive cells)” value came out at 3 fold and the “increase of large cation influx (Topro3 positive cells)” value was 3 fold. Moreover, the “large pore opening (Topro3 staining)” value in assay [2] is listed as “enhanced large pore opening in presence of BzATP”. Also, in assay [3], the dead cells result is “up to 80%”. For the same compound, the “cure of tumor bearing mice” value in assay [4] (HEI3090 1.5 mg/kg ip day 1-18 combined with anti PD-1 200 μg ip) is listed as “cured mice bearing tumors”. The “memory T cell response” value in assay [4] (HEI3090 combined with anti PD-1, re-challenge of cured mice) is recorded as “set up a memory T cell response”. In assay [5] (increasing doses of BzATP, HEI3090 250 nM), the “decrease of the EC50 (BzATP) in the presence of HEI3090” value is 22%. Also, the “shift of the EC50 for BzATP” value in assay [5] (low dose of HEI3090 (250 nM)) is recorded as “shift to the left of the EC50 for BzATP”.
